35 compounds from patent publication US20090054392A1, “NAPHTHYLPYRIMIDINE, NAPHTHYLPYRAZINE AND NAPHTHYLPYRIDAZINE ANALOGS AND THEIR USE AS AGONISTS OF THE WNT-BETA-CATENIN CELLULAR MESSAGING SYSTEM” (Wyeth, priority 2007, published 2009) can be followed below.

In general, EC50 refers to the concentration that produces a half-maximal response. A low value points to a more potent agent.

Like-named read-outs stand apart in the source and are kept apart here.

This series relates to Dkk1-LRP5-TCF-Luciferase. Nature of the series: Functional Dkk1-LRP5-TCF-Luciferase Assay in U2OS Cells. Particulars: for fold induction at 2 µM / fold induction at 20 µM / EC50: Homo sapiens, U2OS; for fold induction at 20 µM: read-out: C = TCF ACTIVITY/DMSO CONTROL Fold induction @ 20.0 uM, 20.0 uM compound; for A = MAX FOLD Induction/DMSO CONTROL: maximum fold induction over DMSO control.

The mark [1] stands for this setting: read-out: B = TCF ACTIVITY/DMSO CONTROL Fold induction @ 2.0 uM, 2.0 uM compound.

`NCC1(CN)C[C@@H]2C[C@H]1CN2c1nccc(-c2ccc3ccccc3c2)n1` [{(1S,4R)-2-[4-(2-naphthyl)pyrimidin-2-yl]-2-azabicyclo[2.2.1]heptane-5,5-diyl}dimethanamine]: under setting [1], the fold induction at 2 µM was 1.2.
`c1cncc(CCNc2nccc(-c3ccc4ccccc4c3)n2)c1` [4-(2-naphthyl)-N-(2-pyridin-3-ylethyl)pyrimidin-2-amine]: the fold induction at 20 µM was 1.04. Besides, the fold induction at 2 µM under setting [1] came out at 1.15.
As for `CC(=O)N[C@@H]1CCN(c2nccc(-c3ccc4ccccc4c3)n2)C1` [N-{(3R)-1-[4-(2-naphthyl)pyrimidin-2-yl]pyrrolidin-3-yl}acetamide], the fold induction at 20 µM came out at 0.2 and the “A = MAX FOLD Induction/DMSO CONTROL” value is given as 1.610 fold. Under setting [1], the fold induction at 2 µM was found to be 1.62.
Consider `OCC1CCN([C@@H]2CCN(c3nccc(-c4ccc5ccccc5c4)n3)C2)CC1` [(1-{(3R)-1-[4-(2-naphthyl)pyrimidin-2-yl]pyrrolidin-3-yl}piperidin-4-yl)methanol], for which the fold induction at 20 µM is 0.01. The fold induction at 2 µM under setting [1] stood at 1.69.
For the compound `c1ccc2cc(-c3ccnc(N4CCNCC4)n3)ccc2c1` [4-(2-naphthyl)-2-piperazin-1-ylpyrimidine], the “A = MAX FOLD Induction/DMSO CONTROL” value worked out at 2.050 fold. Also, the fold induction at 2 µM (read-out: B = TCF ACTIVITY/DMSO CONTROL Fold induction @ 2.0 uM) was found to be 2.64.
As for `CC(C)(C)OC(=O)N1CCN(c2nccc(-c3ccc4ccccc4c3)n2)CC1` [tert-butyl 4-[4-(2-naphthyl)pyrimidin-2-yl]piperazine-1-carboxylate], the fold induction at 20 µM came to 1.94. The fold induction at 2 µM under setting [1] worked out at 0.98.
As for `CN(C)[C@@H]1CCN(C(=O)[C@H]2CCCN2c2nccc(-c3ccc4ccccc4c3)n2)C1` [(3R)—N,N-dimethyl-1-{1-[4-(2-naphthyl)pyrimidin-2-yl]-D-prolyl}pyrrolidin-3-amine], the fold induction at 20 µM was 1.85 and the “A = MAX FOLD Induction/DMSO CONTROL” value worked out at 1.630 fold. Moreover, under setting [1], the fold induction at 2 µM was found to be 0.93.
As for `CCOC(=O)N1CCCN(c2nccc(-c3ccc4ccccc4c3)n2)CC1` [ethyl 4-[4-(2-naphthyl)pyrimidin-2-yl]-1,4-diazepane-1-carboxylate], the concentration giving a half-maximal response (EC50) turned out to be 30 µM, the fold induction at 20 µM was 2.49 and the “A = MAX FOLD Induction/DMSO CONTROL” value is on record as 1.790 fold.
`N[C@H]1CCN(c2nccc(-c3ccc4ccccc4c3)n2)C1` [(3S)-1-[4-(2-naphthyl)pyrimidin-2-yl]pyrrolidin-3-amine]: the fold induction at 2 µM under setting [1] stood at 1.48.
Regarding `C=Cc1ccc2cc(-c3ccnc(N4CCC(CN)CC4)n3)ccc2c1` [1-{1-[4-(6-vinyl-2-naphthyl)pyrimidin-2-yl]piperidin-4-yl}methanamine], the fold induction at 2 µM under setting [1] was 1.21.
For the compound `CC(=O)N1CCCN(c2nccc(-c3ccc4ccccc4c3)n2)CC1` [1-acetyl-4-[4-(2-naphthyl)pyrimidin-2-yl]-1,4-diazepane], the EC50 came out at 7.3 µM, the fold induction at 20 µM turned out to be 3.21 and the “A = MAX FOLD Induction/DMSO CONTROL” value is recorded as 1.757 fold. The fold induction at 2 µM under setting [1] came out at 1.46.
The corresponding values for `NC(=O)N1CCCN(c2nccc(-c3ccc4ccccc4c3)n2)CC1` [4-[4-(2-naphthyl)pyrimidin-2-yl]-1,4-diazepane-1-carboxamide] are 0.32 µM, 1.79, 2.050 fold and 1.5.
Consider `c1ccc2cc(-c3ccnc(N4CCC4)n3)ccc2c1` [2-azetidin-1-yl-4-(2-naphthyl)pyrimidine], for which the fold induction at 20 µM stood at 1.58. For the same compound, under setting [1], the fold induction at 2 µM worked out at 1.37.
For the compound `CC(=O)N[C@H]1CCN(c2nccc(-c3ccc4ccccc4c3)n2)C1` [N-{(3S)-1-[4-(2-naphthyl)pyrimidin-2-yl]pyrrolidin-3-yl}acetamide], a half-maximal effect (EC50) was put at 6.88 µM, the fold induction at 20 µM was found to be 1.5 and the “A = MAX FOLD Induction/DMSO CONTROL” value is on record as 4.375 fold. The fold induction at 2 µM under setting [1] stood at 1.02.
In the case of `CN(C)[C@@H]1CCN(C[C@H]2CCN(c3nccc(-c4ccc5ccccc5c4)n3)C2)C1` [(3R)—N,N-dimethyl-1-({(3R)-1-[4-(2-naphthyl)pyrimidin-2-yl]pyrrolidin-3-yl}methyl)pyrrolidin-3-amine], the fold induction at 20 µM came to 0.02 and the “A = MAX FOLD Induction/DMSO CONTROL” value came out at 1.440 fold. The fold induction at 2 µM under setting [1] turned out to be 2.24.
On the same counts, the results for `c1ccc2cc(-c3ccnc(N4CC[C@@H](N5CCCC5)C4)n3)ccc2c1` [(3′R)-1′-[4-(2-naphthyl)pyrimidin-2-yl]-1,3′-bipyrrolidine] are 2.62, 2.760 fold and 1.38.
With `COC(=O)C(Nc1nccc(-c2ccc3ccccc3c2)n1)C1CCN(C(=O)OC(C)(C)C)CC1` (centres unmarked) [tert-butyl 4-(2-methoxy-1-{[4-(2-naphthyl)pyrimidin-2-yl]amino}-2-oxoethyl)piperidine-1-carboxylate], the fold induction at 2 µM under setting [1] was 1.62.
In the case of `CC(C)(C)OC(=O)N1CCC(CNc2nccc(-c3ccc4ccccc4c3)n2)CC1` [tert-butyl 4-({[4-(2-naphthyl)pyrimidin-2-yl]amino}methyl)piperidine-1-carboxylate], the fold induction at 20 µM was determined as 1.18. Besides, the fold induction at 2 µM under setting [1] was 0.93.
On the same counts, the results for `CCOC(=O)N[C@@H]1CCN(c2nccc(-c3ccc4ccccc4c3)n2)C1` [ethyl {(3R)-1-[4-(2-naphthyl)pyrimidin-2-yl]pyrrolidin-3-yl}carbamate] are 0.69 and 1.21.
As for `c1ccc2cc(-c3ccnc(NC4CCNCC4)n3)ccc2c1` [4-(2-naphthyl)-N-piperidin-4-ylpyrimidin-2-amine], the EC50 came to 4.12 µM, the fold induction at 20 µM came out at 1.75 and the “A = MAX FOLD Induction/DMSO CONTROL” value was 3.723 fold. Under setting [1], the fold induction at 2 µM came to 1.47.
For the compound `NC[C@H]1CC[C@@H](Oc2nccc(-c3ccc4ccccc4c3)n2)CC1` [1-{cis-4-[(4-naphthalen-2-ylpyrimidin-2-yl)oxy]cyclohexyl}methanamine], the fold induction at 2 µM under setting [1] was found to be 4.2.
With `O=CN1CCCN(Cc2nccc(-c3ccc4ccccc4c3)n2)CC1` [4-{[4-(2-naphthyl)pyrimidin-2-yl]methyl}-1,4-diazepane-1-carbaldehyde], the fold induction at 20 µM stood at 1.13. Also, the fold induction at 2 µM under setting [1] was 1.15.
The corresponding values for `O=C1CCN(c2nccc(-c3ccc4ccccc4c3)n2)CC1` [1-[4-(2-naphthyl)pyrimidin-2-yl]piperidin-4-one] are 1.19 and 1.43.
As to `O=C(NCC[C@@H]1CCCN1c1nccc(-c2ccc3ccccc3c2)n1)C(F)(F)F` [2,2,2-trifluoro-N-(2-{(2S)-1-[4-(2-naphthyl)pyrimidin-2-yl]pyrrolidin-2-yl}ethyl)acetamide], the fold induction at 20 µM was 0.89. The fold induction at 2 µM under setting [1] was found to be 1.44.
Regarding `CN(C)CCCN(C)[C@H]1CCN(c2nccc(-c3ccc4ccccc4c3)n2)C1` [N,N,N′-trimethyl-N′-{(3S)-1-[4-(2-naphthyl)pyrimidin-2-yl]pyrrolidin-3-yl}propane-1,3-diamine], the fold induction at 2 µM under setting [1] stood at 2.
Consider `N=C(N)N[C@@H]1CCN(c2nccc(-c3ccc4ccccc4c3)n2)C1` [N-{(3R)-1-[4-(2-naphthyl)pyrimidin-2-yl]pyrrolidin-3-yl}guanidine], for which the fold induction at 20 µM stood at 0.65. The fold induction at 2 µM under setting [1] was 1.63.
Consider `CC1(O)CCN(c2nccc(-c3ccc4ccccc4c3)n2)CC1` [4-methyl-1-[4-(2-naphthyl)pyrimidin-2-yl]piperidin-4-ol], for which the fold induction at 20 µM was 1.09.
For the compound `CC(C)(C)OC(=O)N1CCN(C[C@@H]2CCN(c3nccc(-c4ccc5ccccc5c4)n3)C2)CC1` [tert-butyl 4-({(3S)-1-[4-(2-naphthyl)pyrimidin-2-yl]pyrrolidin-3-yl}methyl)piperazine-1-carboxylate], the fold induction at 20 µM was 0.85. In addition, the fold induction at 2 µM under setting [1] was determined as 1.16.
As to `CC(C)(C)OC(=O)N[C@H]1CCN(c2nccc(-c3ccc4ccccc4c3)n2)C1` [tert-butyl {(3S)-1-[4-(2-naphthyl)pyrimidin-2-yl]pyrrolidin-3-yl}carbamate], the fold induction at 2 µM under setting [1] is 1.51.
As to `O=C(N[C@H]1CCN(c2nccc(-c3ccc4ccccc4c3)n2)C1)N1CCOCC1` [N-{(3S)-1-[4-(2-naphthyl)pyrimidin-2-yl]pyrrolidin-3-yl}morpholine-4-carboxamide], the fold induction at 20 µM was found to be 1.72. Moreover, the fold induction at 2 µM under setting [1] is 0.93.
On the same counts, the results for `CCN(CC)C(=O)N1CCC(CNc2nccc(-c3ccc4ccccc4c3)n2)CC1` [N,N-diethyl-4-({[4-(2-naphthyl)pyrimidin-2-yl]amino}methyl)piperidine-1-carboxamide] are 1.04 and 1.22.
With `CN(CCN(C)[C@@H]1CCN(c2nccc(-c3ccc4ccccc4c3)n2)C1)Cc1ccccc1` [N-benzyl-N,N′-dimethyl-N′-{(3R)-1-[4-(2-naphthyl)pyrimidin-2-yl]pyrrolidin-3-yl}ethane-1,2-diamine], the fold induction at 2 µM under setting [1] came out at 1.6.
Same read-out and setting: in the case of `CN(c1nccc(-c2ccc3ccccc3c2)n1)C1CCN(C(=O)c2ccccc2)CC1` [N-(1-benzoylpiperidin-4-yl)-N-methyl-4-(2-naphthyl)pyrimidin-2-amine] it was 1.85.
In the case of `NC[C@@H]1CCCN(c2nccc(-c3ccc4ccccc4c3)n2)CC1` [1-{(4R)-1-[4-(2-naphthyl)pyrimidin-2-yl]azepan-4-yl}methanamine], the midpoint of the response, the EC50, lay at 1.19 µM and the “A = MAX FOLD Induction/DMSO CONTROL” value is recorded as 3.950 fold. In addition, the fold induction at 2 µM under setting [1] turned out to be 2.66.
Consider `COC(=O)NCC1CCN(c2nccc(-c3ccc4ccccc4c3)n2)CC1` [methyl ({1-[4-(2-naphthyl)pyrimidin-2-yl]piperidin-4-yl}methyl)carbamate], for which the fold induction at 20 µM was 1.59. Besides, under setting [1], the fold induction at 2 µM turned out to be 1.21.
